Experimental data as given in US9790173B2, “Alpha-7 nicotinic acetylcholine receptor modulators and uses thereof-I” (MERCK SHARP & DOHME CORP., priority 2012, dated 2017).

Target: T1, rat α7 nAChRs (Rattus norvegicus, UniProt Q05941)
T1 construct: expressed in transfected cells; host or cells: GH4C1 cells (rat pituitary line) stably expressing α7 nAChR
Test: Automated planar patch clamp (Patchliner) electrophysiology, α7 nAChR PAM activity
Format: cell-based
Design: key to Type I or Type II: I: Type 1 predominately affects the peak current; Type II modulators affect the peak current and also delay the desensitization of the receptor
Conditions: for Type I or Type II: modulator type based on the electrophysiology trace; for activation at 3 µM: GH4-C1, 3 μM compound in the presence of acetylcholine, GH4C1 cells expressing rat α7 nAChRs, peak current, read-out: Peak potentiation at 3 μM compound
Procedure: Tested compounds were prepared by serial dilutions of 10 mM stock solution in DMSO to concentrations of the compound 1000 times higher than its final concentration. The DMSO stock solutions were then diluted 1:100 in the recording buffer bringing DMSO concentration to 1%. These intermediate solutions were further diluted 10 times with buffer to obtain final concentrations and lower DMSO concentration to 0.1%. […]
Compounds of the invention may be evaluated by electrophysiology using a Patchliner® (Nanion Technologies GmbH, Germany), an automated planar patch-clamp platform of medium throughput was used as a first step in electrophysiological assessment of α7 nAChR positive allosteric modulators (PAMs).
Briefly, intracellular (KCl—50 mM, NaCl—10 mM, KF—60 mM, EGTA—20 mM, HEPES—10 mM, pH—7.2, 285 mOsmol) and extracellular (NaCl—140 mM, KCl—4 mM, CaCl2—2 mM, MgCl2—1 mM, HEPES—10 mM, D-Glucose—5 mM, pH—7.4, 298 mOsmol) solutions were automatically pipetted onto NPC-16 chip (medium resistance ˜2.5-2.6 MΩ). Suspension of GH4C1 cells expressing rat α7 nAChRs was introduced in 4 wells of a medium resistance chip and suction was applied to attract cells in the holes. The extracellular solution was subsequently exchanged to high calcium solution (NaCl—80 mM, KCl—3 mM, CaCl2—45 mM, HEPES—10 mM, pH—7.4, 298 mOsmol) followed by gigaohm seal formation and obtaining whole-cell configuration. The rest of protocol was carried out in the high-calcium recording solution. Holding potential was −70 mV throughout the protocol. A control response to 60 or 100 μM of ACh was obtained first. Next, a cell was pre-incubated with compound of interest at 3 μM for ˜30 s after which the compound was co-applied with acetylcholine.
Amplitude of the responses was measured in HEKA Patchmaster software (HEKA Elektronik, Germany) and percentage of potentiation calculated. Recording was repeated […] a minimum of two replicates had been obtained per compound.
Compounds shown in Table 1 were evaluated by automated planar patch clamp on the Patchliner® as described in Example P2.1. […] The compounds are designated either as Type I or Type II modulators based on the electrophysiology trace. Type 1 predominately affects the peak current. Type II modulators affect the peak current and also delay the desensitization of the receptor.

T1 sequence (Q05941 23-502): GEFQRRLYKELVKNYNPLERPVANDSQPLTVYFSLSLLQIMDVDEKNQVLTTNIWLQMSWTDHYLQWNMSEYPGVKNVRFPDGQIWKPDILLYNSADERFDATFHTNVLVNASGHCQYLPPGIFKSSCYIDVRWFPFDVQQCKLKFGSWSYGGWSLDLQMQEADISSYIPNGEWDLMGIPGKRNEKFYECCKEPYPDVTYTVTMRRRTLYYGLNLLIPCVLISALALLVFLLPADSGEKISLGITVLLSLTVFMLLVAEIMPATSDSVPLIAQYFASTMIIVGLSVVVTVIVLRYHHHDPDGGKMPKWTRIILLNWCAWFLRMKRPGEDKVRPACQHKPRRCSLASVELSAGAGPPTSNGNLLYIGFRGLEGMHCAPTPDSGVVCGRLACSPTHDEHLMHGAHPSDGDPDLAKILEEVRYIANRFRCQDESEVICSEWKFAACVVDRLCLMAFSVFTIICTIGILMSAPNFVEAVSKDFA

SMILES	Type I or Type II	activation at 3 µM [%]
CC1(C)C(c2ccc(S(N)(=O)=O)cc2)[C@H]1CNc1ccc(F)c(C(F)(F)F)c1 (mixture of isomers) [Example 33, ±trans 4-[3-({[4-fluoro-3-(trifluoromethyl)phenyl]amino}methyl)-2,2-dimethylcyclopropyl]benzenesulfonamide]	II	
CC1(C)C(c2ccc(S(N)(=O)=O)cc2)[C@H]1CNc1ccc(F)cc1OC(F)F (mixture of isomers) [Example 34, ±trans 4-[3-({[2-(difluoromethoxy)-4-fluorophenyl]amino}methyl)-2,2-dimethylcyclopropyl]benzenesulfonamide]	II	
CC(C)(C)c1cc(NC[C@@H]2C(c3ccc(S(N)(=O)=O)cc3)C2(C)C)no1 (mixture of isomers) [Example 35, ±trans 4-(3-{[(5-tert-butyl-1,2-oxazol-3-yl)amino]methyl)}2,2-dimethylcyclopropyl)benzenesulfonamide]	II	57
Cc1cc(F)ccc1NC[C@@H]1[C@@H](c2ccc(S(N)(=O)=O)cc2)C1(C)C (racemic) [Example 38, ±trans 4-[-3-{[(4-fluoro-2-methylphenyl)amino]methyl}-2,2-dimethylcyclopropyl]benzenesulfonamide]	II	
COc1ccc(Cl)cc1NC[C@@H]1[C@@H](c2ccc(NS(C)(=O)=O)cc2)C1(C)C (racemic) [Example 46, ±trans N-{4-[3-{[(5-chloro-2-methoxyphenyl)amino]methyl}-2,2-dimethylcyclopropyl]phenyl}methanesulfonamide]	I	783
COc1ccc(Cl)cc1NC[C@@H]1[C@@H](c2ccc(NS(N)(=O)=O)cc2)C1(C)C (racemic) [Example 59, ±trans N-[4-(3-{[(5-chloro-2-methoxyphenyl)amino]methyl}-2,2-dimethylcyclopropyl)phenyl]sulfuric diamide]	I	
CC1(C)[C@H](CNC2CCCCC2(F)F)[C@H]1c1ccc(S(N)(=O)=O)cc1 (relative stereo) [Example 62, trans 4-(3-{[(2,2-difluorocyclohexyl)amino]methyl}-2,2-dimethylcyclopropyl)benzenesulfonamide]	II	38
COc1ccc(Cl)cc1NC[C@@H]1[C@@H](c2ccc(NS(C)(=O)=O)cc2)C1(C)C (single isomer, unassigned; enantiomer a) [Example 47]	I	867
Cc1cc(F)ccc1NC[C@@H]1[C@@H](c2ccc(S(N)(=O)=O)cc2)C1(C)C (single isomer, unassigned; enantiomer a) [Example 57, Enantiomer A of trans 4-[3-{[(4-fluoro-2-methylphenyl)amino]methyl}-2,2-dimethylcyclopropyl]benzenesulfonamide]	I	473
Cc1cc(F)ccc1NC[C@H]1[C@H](c2ccc(S(N)(=O)=O)cc2)C1(C)C (single isomer, unassigned; enantiomer b) [Example 58, Enantiomer B of trans 4-[3-{[(4-fluoro-2-methylphenyl)amino]methyl}-2,2-dimethylcyclopropyl]benzenesulfonamide]	II	
NS(=O)(=O)c1ccc([C@@H]2C[C@H]2CNc2cc(F)ccc2OC(F)(F)F)cc1 (stereo in doubt) [Example 53, 4-[(1R,2R)-2-({[5-fluoro-2-(trifluoromethoxy)phenyl]amino}methyl)cyclopropyl]benzenesulfonamide]	II	
COc1ccc(Cl)cc1NC[C@H]1C[C@@H]1c1ccc(S(N)(=O)=O)cc1 [Example 1, ±trans 4-(2-{[(5-chloro-2-methoxyphenyl)amino]methyl}cyclopropyl)benzenesulfonamide]	II	
NS(=O)(=O)c1ccc([C@H]2C[C@@H]2CNc2ccc(F)c(F)c2)cc1 [Example 2, ±trans 4-(2-{[(3,4-difluorophenyl)amino]methyl}cyclopropyl)benzenesulfonamide]	II	
COc1ccc(Cl)cc1NC[C@@H]1[C@@H](c2ccc(S(N)(=O)=O)cc2)C1(C)C [Example 4, ±trans 4-(3-{[(5-chloro-2-methoxyphenyl)amino]methyl}-2,2-dimethylcyclopropyl)benzenesulfonamide]	II	
CC1(C)[C@H](CNc2ccccc2)[C@H]1c1ccc(S(N)(=O)=O)cc1 [Example 5, ±trans 4-{2,2-dimethyl-3-[(phenylamino)methyl]cyclopropyl}benzenesulfonamide]	II	
CN(C[C@@H]1[C@@H](c2ccc(S(N)(=O)=O)cc2)C1(C)C)c1ccccc1 [Example 6, ±trans 4-(2,2-dimethyl-{[methyl(phenyl)amino]methyl}cyclopropyl)benzenesulfonamide]	I	506
COc1ccc(Cl)cc1N(C)C[C@@H]1[C@@H](c2ccc(S(N)(=O)=O)cc2)C1(C)C [Example 7, ±trans 4-(3-{[(5-chloro-2-methoxyphenyl)(methyl)amino]methyl}-2,2-dimethylcyclopropyl)benzenesulfonamide]	I	134
COc1ccc(Cl)cc1NC[C@@H]1[C@@H](c2ccc(S(N)(=O)=O)cc2)C12CCCC2 [Example 8, ±trans 4-(2-{[(5-chloro-2-methoxyphenyl)amino]methyl}spiro[2.4]hept-1-yl)benzenesulfonamide]	II	
CC1(C)[C@H](CNc2cncc(F)c2)[C@H]1c1ccc(S(N)(=O)=O)cc1 [Example 10, ±trans 4-[3-{[(5-fluoropyridin-3-yl)amino]methyl}-2,2-dimethylcyclopropyl]benzenesulfonamide]	II	
CC1(C)[C@H](CNc2ccnc(C(F)(F)F)c2)[C@H]1c1ccc(S(N)(=O)=O)cc1 [Example 11, ±trans 4-[2,2-dimethyl-3-({[2-(trifluoromethyl)pyridin-4-yl]amino}methyl)cyclopropyl]benzenesulfonamide]	II	15
NS(=O)(=O)c1ccc([C@H]2C[C@@H]2CNc2ccc(C(F)(F)F)cn2)cc1 [Example 12, ±trans 4-[2-({[5-(trifluoromethyl)pyridin-2-yl]amino}methyl)cyclopropyl]benzenesulfonamide]	I	401
CC1(C)[C@H](CNc2ccc(F)c(F)c2)[C@H]1c1ccc(S(N)(=O)=O)cc1 [Example 14, ±trans 4-[3-{[(3,4-difluorophenyl)amino]methyl}-2,2-dimethylcyclopropyl]benzenesulfonamide]	II	
CC1(C)[C@H](CNc2ccc(F)cc2C(F)(F)F)[C@H]1c1ccc(S(N)(=O)=O)cc1 [Example 15, 4-[(1R,3R)-3-({[4-fluoro-2-(trifluoromethyl)phenyl]amino}methyl)-2,2-dimethylcyclopropyl]benzenesulfonamide]	I	413
CC1(C)[C@H](CNc2cc(F)ccc2OCC(F)(F)F)[C@H]1c1ccc(S(N)(=O)=O)cc1 [Example 16, 4-[(1R,3R)-3-({[5-fluoro-2-(2,2,2-trifluoroethoxy)phenyl]amino}methyl)-2,2-dimethylcyclopropyl]benzenesulfonamide]	I	236
NS(=O)(=O)c1ccc([C@@H]2C[C@H]2CNc2ccc(F)cc2)cc1 [Example 18, 4-[(1R,2R)-2-{[(4-fluorophenyl)amino]methyl}cyclopropyl]benzenesulfonamide]	I	
NS(=O)(=O)c1ccc([C@@H]2C[C@H]2CNc2ccc(C(F)(F)F)cn2)cc1 [Example 19, 4-[(1R,2R)-2-({[5-(trifluoromethyl)pyridin-2-yl]amino}methyl)cyclopropyl]benzenesulfonamide]	I	762
COc1ccccc1NC[C@@H]1[C@@H](c2ccc(S(N)(=O)=O)cc2)C1(C)C [Example 25, ±trans 4-[3-{[(2-methoxyphenyl)amino]methyl}-2,2-dimethylcyclopropyl]benzenesulfonamide]	II	
